The results in this text go back to patent publication US9187477B2, “Azabenzimidazole derivatives” (Boehringer Ingelheim International GmbH, priority 2013, dated 2015).

Usually EC50 stands for the concentration that produces a half-maximal response. A low value points to greater potency.

The target in this assay is AMPK complex 1 (containing alpha1beta1gamma1) (Homo sapiens (Human), UniProt Q13131+Q9Y478). As to the kind of experiment: in vitro AMPK activation assay (ADP-Glo Kinase Assay). It is filed as biochemical. The note with it: AMPK alpha1beta1gamma1, ATP 30 μM, peptide 1 μM, 60 min, room temperature. An excerpt:
Activated AMPK complex 1 (containing alpha1beta1gamma1) was obtained from baculovirus expression system. The gene encoding AMPK alpha1 was cloned into the pACG2T vector (BD Biosciences) to obtain a N-terminal Glutathion S transferase (GST)-fusion protein. The genes encoding AMPK beta1 and gamma1 were cloned into the p2Bac dual multiple cloning site vector (Invitrogen) with beta1 under the control of the p10 promoter and gamma1 under the control of the PH promoter. The transfer vectors containing AMPK were co-transfected individually with AcPNV BacMagic-3 DNA (EMD Millipore) in Sf9 cells and the recombinant baculoviruses were harvested after 5 days, followed by 3 rounds of amplification of the virus stock in Sf9 cells. AMPK (alpha1beta1gamma1) was expressed in High Five 5 cells by co-infection of recombinant alpha1 virus and recombinant beta1/gamma1 virus for 72 h at 27° C. Cells were harvested by centrifugation and lysed by 3 freeze/thaw cycles in PBS with 10% glycerol and protease inhibitor cocktail (Roche). After centrifugation AMPK a1b1g1 in the supernatant was captured by immobilized glutathione (GE Healthcare), impurities were washed away with PBS and AMPK alpha1beta1gamma1 was eluted with PBS containing 20 mM reduced gluthathione. The protein buffer was then exchanged to PBS with 10% glycerol and protein concentration was determined by UV absorbance.
The white 384-well Optiplates (cat. no. 6007299) were purchased from PerkinElmer. The V9101 ADP-Glo Kinase Assay and ultra pure ATP (V915A) was purchased from Promega. The substrate for AMPK (NH2-HMRSAMSGLHLVKRR_CONH2) was purchased from Upstate (12-355).
Compounds were tested in either serial dilutions or single dose concentrations. The serial compound dilutions were prepared in 100% DMSO automatically. The final DMSO concentration in the assay was 0.1%.
The Compound Stock Solutions were 10 mM in 100% DMSO. The compounds were solubilised at room temperature.
In the 384-well plates 1.25 ul of test compound in assay buffer was mixed with 1.25 ul of AMPK and 1.25 μl of the peptide (final concentration of 1 μM) and 1.25 μl of ATP (final concentration of 30 μM), both dissolved in assay buffer. This step was followed by an incubation time of 60 min. Then 5 μl of ADP Glo Reagent was added. This was followed by 40 min of incubation. Then 10 μl of Kinase Detection Reagent was admixed. The plates were sealed and after an incubation period of 30 min, the luminescence signal was measured in an Envision reader. All incubation steps were accomplished at room temperature.
Each assay microtiter plate contained wells with vehicle controls instead of compound (0.1% DMSO in water) as reference for the low signal (100% CTL, low signal), and wells with serial dilutions of AMP (final 30 μM) as reference for high signals.
The luminescence signal generated was proportional to the ADP concentration produced and was correlated with AMPK activity. The analysis of the data was performed by the calculation of the percentage of ATP consumption of AMPK in the presence of the test compound compared to the consumption of ATP in the presence of AMPK without compound. (RLU(sample)/RLU(low control))*100[RLU=relative luminescence units]
An activator of the AMPK enzyme gave values above 100% CTL.
EC50 values based on dose response curves are calculated with the XIFIT software using the 4 Parameter Logistic Model or Sigmoidal Dose-Response Model.
(In ADP-Glo the light output rises with the ADP produced.)

AMPK complex 1 (containing alpha1beta1gamma1), sequence (Q13131 whole entry, the tested form may be a part): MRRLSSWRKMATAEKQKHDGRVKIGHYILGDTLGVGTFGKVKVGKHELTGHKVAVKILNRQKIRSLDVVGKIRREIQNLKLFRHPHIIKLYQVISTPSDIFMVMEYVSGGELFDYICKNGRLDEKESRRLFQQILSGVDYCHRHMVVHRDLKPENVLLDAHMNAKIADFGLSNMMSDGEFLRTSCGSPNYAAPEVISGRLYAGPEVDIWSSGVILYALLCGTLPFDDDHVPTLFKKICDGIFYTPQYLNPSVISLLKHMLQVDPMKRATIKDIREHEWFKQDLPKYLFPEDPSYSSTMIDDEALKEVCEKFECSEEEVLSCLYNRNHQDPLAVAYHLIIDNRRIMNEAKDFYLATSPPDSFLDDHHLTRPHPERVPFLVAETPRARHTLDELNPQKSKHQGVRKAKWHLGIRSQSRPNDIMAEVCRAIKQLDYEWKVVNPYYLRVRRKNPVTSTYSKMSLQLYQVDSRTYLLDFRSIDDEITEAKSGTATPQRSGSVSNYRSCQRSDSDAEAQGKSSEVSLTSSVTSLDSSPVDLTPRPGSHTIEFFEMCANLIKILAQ
AMPK complex 1 (containing alpha1beta1gamma1), sequence (Q9Y478 whole entry, the tested form may be a part): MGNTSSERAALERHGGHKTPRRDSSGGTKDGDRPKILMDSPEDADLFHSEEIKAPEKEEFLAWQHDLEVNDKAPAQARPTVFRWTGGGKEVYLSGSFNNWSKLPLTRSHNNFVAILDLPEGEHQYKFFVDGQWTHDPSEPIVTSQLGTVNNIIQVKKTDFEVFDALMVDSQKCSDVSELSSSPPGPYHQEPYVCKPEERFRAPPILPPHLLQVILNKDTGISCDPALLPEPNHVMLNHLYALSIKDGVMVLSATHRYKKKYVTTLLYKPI
AMPK complex 1 (containing alpha1beta1gamma1), sequence (P54619 whole entry partner, the tested form may be a part): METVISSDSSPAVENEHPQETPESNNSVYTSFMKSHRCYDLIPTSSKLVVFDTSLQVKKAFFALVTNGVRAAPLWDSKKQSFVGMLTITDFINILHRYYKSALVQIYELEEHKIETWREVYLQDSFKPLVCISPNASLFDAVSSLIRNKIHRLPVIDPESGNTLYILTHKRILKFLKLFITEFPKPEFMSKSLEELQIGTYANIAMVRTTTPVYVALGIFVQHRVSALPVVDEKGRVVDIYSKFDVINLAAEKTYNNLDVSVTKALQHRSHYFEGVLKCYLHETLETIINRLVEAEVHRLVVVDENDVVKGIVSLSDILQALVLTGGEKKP

As for `O=C(O[C@H]1CC[C@@H](c2ccc(-c3nc4[nH]c(O[C@@H]5CO[C@H]6[C@@H]5OC[C@H]6O)nc4cc3Cl)cc2)CC1)N1CCOCC1` [Example 12, (cis)-4-(4-(6-Chloro-2-((3R,3aR,6R,6aR)-6-hydroxyhexahydrofuro[3,2-b]furan-3-yloxy)-3H-imidazo[4,5-b]pyridin-5-yl)phenyl)cyclohexyl morpholine-4-carboxylate], the EC50 was 1310 nM.

Take `O=C(O[C@H]1CC[C@@H](c2ccc(-c3nc4[nH]c(O[C@@H]5CO[C@H]6[C@@H]5OC[C@H]6O)nc4cc3Cl)cc2)CC1)N1CCCC1` [Example 13, (cis)-4-(4-(6-Chloro-2-((3R,3aR,6R,6aR)-6-hydroxyhexahydrofuro[3,2-b]furan-3-yloxy)-3H-imidazo[4,5-b]pyridin-5-yl)phenyl)cyclohexyl pyrrolidine-1-carboxylate]: the EC50 is 2040 nM.

Regarding `O=C(OC1CCN(c2ccc(-c3nc4[nH]c(O[C@@H]5CO[C@H]6[C@@H]5OC[C@H]6O)nc4cc3Cl)cc2)CC1)N1CCOCC1` [Example 15, 1-(4-(6-Chloro-2-((3R,3aR,6R,6aR)-6-hydroxyhexahydrofuro[3,2-b]furan-3-yloxy)-3H-imidazo[4,5-b]pyridin-5-yl)phenyl)piperidin-4-yl morpholine-4-carboxylate], the EC50 was 133 nM.

The molecule `CC(C)NC(=O)OC1CCN(c2ccc(-c3nc4[nH]c(O[C@@H]5CO[C@H]6[C@@H]5OC[C@H]6O)nc4cc3Cl)cc2)CC1` [Example 14, 1-(4-(6-Chloro-2-((3R,3aR,6R,6aR)-6-hydroxyhexahydrofuro[3,2-b]furan-3-yloxy)-3H-imidazo[4,5-b]pyridin-5-yl)phenyl)piperidin-4-yl isopropylcarbamate] displayed an EC50 of 578 nM.

As for `CCNC(=O)O[C@H]1CC[C@H](c2ccc(-c3nc4[nH]c(O[C@@H]5CO[C@H]6[C@@H]5OC[C@H]6O)nc4cc3Cl)cc2)CC1` [Example 7, (trans)-4-(4-(6-Chloro-2-((3R,3aR,6R,6aR)-6-hydroxyhexahydrofuro[3,2-b]furan-3-yloxy)-3H-imidazo[4,5-b]pyridin-5-yl)phenyl)cyclohexyl ethylcarbamate], the EC50 was 468 nM.

Take `CC(C)OC(=O)NC1CCN(c2ccc(-c3nc4[nH]c(O[C@@H]5CO[C@H]6[C@@H]5OC[C@H]6O)nc4cc3Cl)cc2)CC1` [Example 16, Isopropyl 1-(4-(6-chloro-2-((3R,3aR,6R,6aR)-6-hydroxyhexahydrofuro[3,2-b]furan-3-yloxy)-3H-imidazo[4,5-b]pyridin-5-yl)phenyl)piperidin-4-ylcarbamate]: the EC50 turned out to be 290 nM.
